Measurements reported in ChEMBL document CHEMBL4330186, “An Isoquinoline Scaffold as a Novel Class of Allosteric HIV-1 Integrase Inhibitors” (ACS Med Chem Lett, 2019).
Values belong to the molecule of their own block, whether it stands above or below them.

How the values were obtained:
[1] = target: T1, Human immunodeficiency virus type 1 integrase (Human immunodeficiency virus 1, UniProt Q7ZJM1); assay: Inhibition of LEDGF/p75-independant HIV1 His/FLAG-tagged integrase expressed in Escherichia coli BL21(DE3) by HTRF assay
[2] = Stability of the compound at 60 degC for 17 hrs by 1H NMR analysis; format: physicochemical
[3] = Drug metabolism in DMSO d6 at 100 degC for 3 days by 1H NMR analysis
[4] = target: T1, Human immunodeficiency virus type 1 integrase; assay: Inhibition of LEDGF/p75-dependant HIV1 His/FLAG-tagged integrase expressed in Escherichia coli BL21(DE3) by HTRF assay
[5] = target: T1, Human immunodeficiency virus type 1 integrase; assay: Inhibition of LEDGF/p75 binding to HIV1 His/FLAG-tagged integrase expressed in Escherichia coli BL21(DE3) by HTRF assay
[6] = target: T1, Human immunodeficiency virus type 1 integrase; assay: Induction of HIV1 His/FLAG-tagged integrase hyper-multimerization expressed in Escherichia coli BL21(DE3) by HTRF assay
[7] = target: T1, Human immunodeficiency virus type 1 integrase; assay: Inhibition of biotinylated-TAR-RNA binding to HIV1 His6-tagged integrase expressed in Escherichia coli BL21(DE3) preincubated for 2 hrs followed by RNA addition and measured after 2 hrs by Alpha screen assay
[8] = tested on: Human immunodeficiency virus 1; assay: Antiviral activity against HIV-1 NL4-3 harboring wild-type integrase infected in human HeLa TZM-bl cells after 48 hrs by p24 ELISA; format: functional, organism-based; details: Human immunodeficiency virus 1, NL4-3, 48 h
[9] = tested on: Human immunodeficiency virus 1; assay: Antiviral activity against HIV-1 NL4-3 harboring integrase A128T mutant infected in human HeLa TZM-bl cells after 48 hrs by p24 ELISA; format: functional, organism-based; details: Human immunodeficiency virus 1, NL4-3, 48 h
[10] = Drug level treated with 2-(1-(biphenyl-4-yl)-3-(chroman-6-yl)isoquinolin-4-yl)-2-tert-butoxyacetic acid at 100 degC for 17 days by 1H NMR analysis; format: physicochemical; details: 408 h
[11] = Drug level treated with 2-(1-(biphenyl-4-yl)-3-(chroman-6-yl)isoquinolin-4-yl)-2-tert-butoxyacetic acid at 100 degC for 17 days by HSQC NMR analysis; format: physicochemical; details: 408 h
[12] = Drug metabolism assessed as 1-([1,1'-biphenyl]-4-yl)-3-(chroman-6-yl)isoquinoline-4-carbaldehyde formation at 100 degC for 17 days by 1H NMR analysis
[13] = Drug metabolism assessed as 1-([1,1'-biphenyl]-4-yl)-3-(chroman-6-yl)isoquinoline-4-carbaldehyde formation at 100 degC for 17 days by HSQC NMR analysis

T1 sequence (Q7ZJM1 whole entry): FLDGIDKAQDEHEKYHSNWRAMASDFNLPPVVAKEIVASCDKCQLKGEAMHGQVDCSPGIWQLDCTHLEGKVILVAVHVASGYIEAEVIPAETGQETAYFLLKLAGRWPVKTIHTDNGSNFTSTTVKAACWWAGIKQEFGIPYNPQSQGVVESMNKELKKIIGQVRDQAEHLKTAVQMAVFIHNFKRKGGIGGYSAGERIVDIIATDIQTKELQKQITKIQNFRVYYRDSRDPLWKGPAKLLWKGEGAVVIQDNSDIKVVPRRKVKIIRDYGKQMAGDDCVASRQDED

SMILES: COc1cccc(-c2nc(-c3ccccc3)c(C(OC(C)(C)C)C(=O)O)c3ccccc23)c1 (stereo not given)
IC50 [1]: 13800 nM

SMILES: Cc1nc2ccc(Br)cc2c(-c2ccc(Cl)cc2)c1C(OC(C)(C)C)C(=O)O (stereo not given)
IC50 [1]: 120 nM | IC50 [4]: 150 nM | IC50 [5]: 150 nM | EC50 [6]: 146 nM | IC50 [7]: 136 nM | EC50 [8]: 630 nM | EC50 [9]: 12200 nM

SMILES: O=Cc1c(-c2ccc3c(c2)CCCO3)nc(-c2ccc(-c3ccccc3)cc2)c2ccccc12
Drug metabolism [10]: Metabolite_Detected | Drug metabolism [11]: Metabolite_Detected

SMILES: CC(C)(C)OC(C(=O)O)c1c(-c2ccc3c(c2)CCCO3)nc(-c2cnn(Cc3ccccc3)c2)c2ccccc12 (stereo not given)
IC50 [1]: 480 nM | IC50 [4]: 23400 nM | IC50 [5]: 36700 nM | EC50 [6]: < 1790 nM | IC50 [7]: 210 nM | EC50 [8]: 1100 nM | EC50 [9]: 730 nM

SMILES: CC(C)(C)OC(C(=O)O)c1c(-c2ccc3c(c2)CCCO3)nc(-c2ccc(-c3ccccc3)cc2)c2ccccc12 (stereo not given)
IC50 [1]: 830 nM | Stability [2]: Stable | Drug metabolism [12]: Metabolite detected | Drug metabolism [13]: Metabolite detected

SMILES: CC(C)(C)OC(C(=O)O)c1c(-c2ccc3c(c2)CCCO3)nc(-c2ccco2)c2ccccc12 (stereo not given)
IC50 [1]: 3550 nM

SMILES: CC(C)(C)OC(C(=O)O)c1c(-c2ccc3c(c2)CCCO3)nc(-c2ccc3c(c2)CCCO3)c2ccccc12 (stereo not given)
IC50 [1]: 1220 nM

SMILES: CC(C)(C)OC(C(=O)O)c1c(-c2ccc3c(c2)CCCO3)nc(-c2ccccc2)c2ccccc12 (stereo not given)
IC50 [1]: 4650 nM

SMILES: CC(C)(C)OC(C(=O)O)c1c(-c2ccccc2)nc(-c2ccccc2)c2ccccc12 (stereo not given)
IC50 [1]: 10100 nM

Now from value to molecule, other results behind:

IC50 [1]: 12300 nM
SMILES: CC(C)(C)OC(C(=O)O)c1c(-c2ccc3c(c2)CCCO3)nc(-c2cccc(C(=O)O)c2)c2ccccc12 (stereo not given)

IC50 [1]: 810 nM
SMILES: CC(C)(C)OC(C(=O)O)c1c(-c2ccc3c(c2)CCCO3)nc(-c2nc3cc(Cl)ccc3[nH]2)c2ccccc12 (stereo not given)

IC50 [1]: 12900 nM | Stability [2]: Stable
SMILES: CC(C)(C)OC(C(=O)O)c1c(-c2ccc3c(c2)CCCO3)nc(-c2cccc(F)c2)c2ccccc12 (stereo not given)
Drug metabolism [3]: Metabolite detected

IC50 [1]: 1000 nM
SMILES: COc1ccc(-c2nc(-c3ccc4c(c3)CCCO4)c(C(OC(C)(C)C)C(=O)O)c3ccccc23)cc1 (stereo not given)

IC50 [1]: 1140 nM | Stability [2]: Stable
SMILES: COc1cccc(-c2nc(-c3ccc4c(c3)CCCO4)c(C(OC(C)(C)C)C(=O)O)c3ccccc23)c1 (stereo not given)
Drug metabolism [3]: Metabolite detected

IC50 [1]: 7640 nM
SMILES: CC(C)(C)OC(C(=O)O)c1c(-c2ccc3c(c2)CCCO3)nc(-c2ccc(C(F)(F)F)cc2)c2ccccc12 (stereo not given)
